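Exposure lasted 48 hours, with cells grown in 96-well plates and compounds tested at five concentrations. GI50 = concentration required for 50% inhibition of growth.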 Active and inactive are the calls of the source. No stated cut-off is given here; in the data, active = GI50 up to about 1.1 µM and inactive = higher.
Columns and labels:
Assay in all cases: NCI anticancer screen, dose series, 48 h
MDA-N = test system: MDA-N
ACHN = test system: ACHN
A498 = test system: A498
Malme-3M = test system: Malme-3M
SK-MEL-5 = test system: SK-MEL-5
LOX IMVI = test system: LOX IMVI
OVCAR-5 = test system: OVCAR-5
SNB-75 = test system: SNB-75
MCF7 = test system: MCF7
NCI-H23 = test system: NCI-H23
IGROV-1 = test system: IGROV-1
U-251 = test system: U-251
HCT-116 = test system: HCT-116
OVCAR-3 = test system: OVCAR-3
HOP-92 = test system: HOP-92
TK-10 = test system: TK-10
UACC-257 = test system: UACC-257
SF-539 = test system: SF-539
SK-MEL-2 = test system: SK-MEL-2
HL-60 = test system: HL-60

| Structure (SMILES) | GI50 (MDA-N) | GI50 (ACHN) | GI50 (A498) | GI50 (Malme-3M) | GI50 (SK-MEL-5) | GI50 (LOX IMVI) | GI50 (OVCAR-5) | GI50 (SNB-75) | GI50 (MCF7) | GI50 (NCI-H23) | GI50 (IGROV-1) | GI50 (U-251) | GI50 (HCT-116) | GI50 (OVCAR-3) | GI50 (HOP-92) | GI50 (TK-10) | GI50 (UACC-257) | GI50 (SF-539) | GI50 (SK-MEL-2) | GI50 (HL-60) |
| --- | --- | --- | --- | --- | --- | --- | --- | --- | --- | --- | --- | --- | --- | --- | --- | --- | --- | --- | --- | --- |
| CCOC(=O)CCC(C(=O)OCC)n1nnc2cc(Nc3c(C)[n+]([O-])c4ccc(Cl)cc4[n+]3[O-])ccc21 (stereo not given) | > 100 µM (inactive) | 60.7 µM (inactive) | > 100 µM (inactive) | > 100 µM (inactive) | 73.8 µM (inactive) | 52.2 µM (inactive) | > 100 µM (inactive) | 93.1 µM (inactive) | 34.2 µM (inactive) | 92 µM (inactive) | > 100 µM (inactive) | 80 µM (inactive) | 69.5 µM (inactive) | 40.4 µM (inactive) | 50.8 µM (inactive) | > 100 µM (inactive) | 54.1 µM (inactive) | 82.4 µM (inactive) | 99.1 µM (inactive) | 45 µM (inactive) |
| CN(C)CCCNc1cnc2cc3ccccc3cc2n1 | 32.8 µM (inactive) | 31.2 µM (inactive) | 17.5 µM (inactive) | 14.1 µM (inactive) | 19.6 µM (inactive) | 14.3 µM (inactive) | 18.6 µM (inactive) | 23.7 µM (inactive) | 21.3 µM (inactive) | 25.1 µM (inactive) | 13.9 µM (inactive) | 36.5 µM (inactive) | 32.8 µM (inactive) | 17.6 µM (inactive) | 23.5 µM (inactive) | 27 µM (inactive) | 19.2 µM (inactive) | 23.5 µM (inactive) | 19.5 µM (inactive) | 32.2 µM (inactive) |
| CC(C)NC(=O)OCc1c(COC(=O)NC(C)C)n(C)c2c1ccc1ccccc12 | 1.74 µM (inactive) | 1.48 µM (inactive) | 1.57 µM (inactive) | 0.877 µM (active) | 2.34 µM (inactive) | 1.16 µM (inactive) | 2.97 µM (inactive) | 1.83 µM (inactive) | 0.57 µM (active) | 1.54 µM (inactive) | 1.43 µM (inactive) | 1.63 µM (inactive) | 1.45 µM (inactive) | 2.97 µM (inactive) | 1.16 µM (inactive) | 1.63 µM (inactive) | 1.52 µM (inactive) | 1.68 µM (inactive) | 1.78 µM (inactive) | 2.86 µM (inactive) |
| CC1SCc2nc3ccccc3n21 (stereo not given) | > 100 µM (inactive) | > 100 µM (inactive) | > 100 µM (inactive) | > 100 µM (inactive) | > 100 µM (inactive) | > 100 µM (inactive) | > 100 µM (inactive) | 0.284 µM (active) | > 100 µM (inactive) | > 100 µM (inactive) | > 100 µM (inactive) | > 100 µM (inactive) | > 100 µM (inactive) | > 100 µM (inactive) | > 100 µM (inactive) | > 100 µM (inactive) | > 100 µM (inactive) | > 100 µM (inactive) | > 100 µM (inactive) | > 100 µM (inactive) |
| O=c1c2ccccc2sc2c(CO)ccc(NCCN3CCCCC3)c12 | 3.08 µM (inactive) | 2.39 µM (inactive) | 3.15 µM (inactive) | 2.24 µM (inactive) | 1.69 µM (inactive) | 2.86 µM (inactive) | 6.35 µM (inactive) | 5.77 µM (inactive) | 2.99 µM (inactive) | 2.96 µM (inactive) | 3.93 µM (inactive) | 3.79 µM (inactive) | 2.38 µM (inactive) | 2.22 µM (inactive) | 5.83 µM (inactive) | 3.48 µM (inactive) | 2.07 µM (inactive) | 5 µM (inactive) | 4.47 µM (inactive) | 3.08 µM (inactive) |
| NC1=NCC(CN2CCCC2)O1 (stereo not given) | > 100 µM (inactive) | > 100 µM (inactive) | > 100 µM (inactive) | > 100 µM (inactive) | > 100 µM (inactive) | > 100 µM (inactive) | > 100 µM (inactive) | > 100 µM (inactive) | > 100 µM (inactive) | > 100 µM (inactive) | > 100 µM (inactive) | > 100 µM (inactive) | > 100 µM (inactive) | > 100 µM (inactive) | > 100 µM (inactive) | > 100 µM (inactive) | > 100 µM (inactive) | > 100 µM (inactive) | > 100 µM (inactive) | > 100 µM (inactive) |

Reference: ChEMBL document CHEMBL1201862, “PubChem BioAssay data set” (2004)
